Experimental data as given in patent publication US3974140A, “Ureidoacetamido-penicillins” (Bayer Aktiengesellschaft, priority 1970, dated 1976).
Where “and” joins values, the source holds several entries; their conditions need not be identical. Identical values can stand only once.

What was measured:
[1] = system: Staph. aureus 133; test: MIC, liquid medium test tube series dilution test; type: cell-based, Staphylococcus aureus; details: Staph. aureus 133, 24 hours, 37°C
Summary of the method: (§1)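 Values are minimum inhibitory concentrations in units/ml, taken as the first clear (non-turbid) tube of a dilution series. Tubes of complete liquid medium were incubated 24 h at 37°C.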

[2] = Acute toxicity (LD50), intravenous injection into the vein of the tail; type: in vivo; details: mouse, in vivo, iv
From the text: Acute toxicity (LD50) in white mice after
intravenous injection into the vein of the […]

[3] = system: E. coli 14; test: MIC, liquid medium test tube series dilution test; type: cell-based; details: E. coli 14, 24 hours, 37°C
Summary of the method: as §1

[4] = system: Staph. aureus 1777 E; test: MIC, liquid medium test tube series dilution test; type: cell-based, Staphylococcus aureus; details: 24 hours, 37°C
Summary of the method: as §1

[5] = system: Proteus vulg. 1017; test: MIC, liquid medium test tube series dilution test; type: cell-based, Proteus vulgaris; details: Proteus vulg. 1017, 24 hours, 37°C
Summary of the method: as §1

[6] = system: Proteus vulg. 3400; test: MIC, liquid medium test tube series dilution test; type: cell-based, Proteus vulgaris; details: Proteus vulg. 3400, 24 hours, 37°C
Summary of the method: as §1

[7] = system: Gram-negative and Gram-positive bacteria; test: Antibacterial effect, general statements; details: MIC comparison
[8] = system: Klebsiella K 10; test: MIC, liquid medium test tube series dilution test; type: cell-based; details: Klebsiella K 10, 24 hours, 37°C
Summary of the method: as §1

[9] = system: E. coli C 165; test: MIC, liquid medium test tube series dilution test; type: cell-based; details: E. coli C 165, 24 hours, 37°C
Summary of the method: as §1

[10] = system: Streptoc. faec. ATCC 9790; test: MIC, liquid medium test tube series dilution test; type: cell-based; details: Strep. faec. (Enterococcus) ATCC 9790, 24 hours, 37°C
Summary of the method: as §1

[11] = system: E. coli 183/58; test: MIC, liquid medium test tube series dilution test; type: cell-based; details: E. coli 183/58, 24 hours, 37°C
Summary of the method: as §1

[12] = system: E. coli A 261; test: MIC, liquid medium test tube series dilution test; type: cell-based; details: E. coli A 261, 24 hours, 37°C
Summary of the method: as §1

[13] = system: Klebsiella 63; test: MIC, liquid medium test tube series dilution test; type: cell-based; details: Klebsiella 63, 24 hours, 37°C
Summary of the method: as §1

[14] = system: Psdm. aerug. Bonn; test: MIC, liquid medium test tube series dilution test; type: cell-based, Pseudomonas aerug.; details: 24 hours, 37°C
Summary of the method: as §1

[15] = system: Psdm. aerug. Walter; test: MIC, liquid medium test tube series dilution test; type: cell-based, Pseudomonas aerug.; details: 24 hours, 37°C
Summary of the method: as §1

[16] = i.v. into tail vein, white mice

SMILES	MIC [1]	MIC [3]	MIC [4] [units/ml]	MIC [5]	MIC [6]	Biological activity compared between penicillin (A) and penicillin (B) [7]	MIC [8]	MIC [9]	MIC [10]	MIC [11]	MIC [12] [units/ml]	MIC [13]	MIC [14]	MIC [15]	further results
CN(C(=O)N[C@@H](C(=O)N[C@@H]1C(=O)N2[C@@H]1SC(C)(C)[C@@H]2C(=O)O)c1ccccc1)C(=O)c1cccs1 [Example 75, Sodium D(-)-α-(3-thenoyl-(2)-3-methyl-ureido)-benzylpenicillin]	0.8 units/ml	< 0.8 units/ml	–	–	–	–	–	–	–	–	–	–	–	–	LD50 [2]: 1500 mg/kg
CN(C(=O)N[C@@H](C(=O)N[C@@H]1C(=O)N2[C@@H]1SC(C)(C)[C@@H]2C(=O)O)c1ccccc1)C(=O)OC1CCCCC1 [Example 29, Sodium D(-)-α-(3-cyclohexyloxycarbonyl-3-methyl-ureido)-benzylpenicillin]	< 0.8 units/ml	3.1 units/ml	200	12.5 units/ml	12.5 units/ml	identical within the limit of error	200 units/ml	6.3 units/ml	100 units/ml	3.1 units/ml	> 400	100 units/ml	25 units/ml	50 units/ml	MIC ([1]; listed as (A) of Example 29): < 0.7 units/ml; MIC ([4]; listed as (A) of Example 29): 200 units/ml; MIC ([5]; listed as (A) of Example 29): 12.5 units/ml; MIC ([6]; listed as (A) of Example 29): 12.5 units/ml; MIC ([8]; listed as (A) of Example 29): 200 units/ml; MIC ([9]; listed as (A) of Example 29): 6.25 units/ml; MIC ([11]; listed as (A) of Example 29): 3.12 units/ml; MIC ([12]; listed as (A) of Example 29): 400 units/ml
CN(C(=O)N[C@@H](C(=O)N[C@@H]1C(=O)N2[C@@H]1SC(C)(C)[C@@H]2C(=O)O)c1ccccc1)C(=O)OC1CCCCC1 [Example 67, Sodium D(-)-α-(3-cyclohexyloxycarbonyl-3-methyl-ureido)-benzylpenicillin]	< 0.78 units/ml	1.56 units/ml	400	6.25 units/ml	6.25 units/ml	identical within the limit of error	100 units/ml	6.25 units/ml	100 units/ml	1.56 units/ml	400	100 units/ml	25 units/ml	50 units/ml	MIC ([1]; listed as (B) of Example 29): < 0.7 units/ml; MIC ([5]; listed as (B) of Example 29): 6.25 units/ml; MIC ([6]; listed as (B) of Example 29): 6.25 units/ml; MIC ([8]; listed as (B) of Example 29): 100 units/ml; MIC ([9]; listed as (B) of Example 29): 6.25 units/ml; MIC ([11]; listed as (B) of Example 29): 1.56 units/ml; MIC ([12]; listed as (B) of Example 29): 400 units/ml; MIC ([3]; listed as (B) of Example 29): 1.56 units/ml
CCN(C(=O)N[C@@H](C(=O)N[C@@H]1C(=O)N2[C@@H]1SC(C)(C)[C@@H]2C(=O)O)c1ccccc1)C(=O)c1ccccc1 [Example 60, Sodium D(-)-α-(3-benzoyl-3-ethyl-ureido)-benzylpenicillin]	< 0.78 units/ml	6.25 units/ml	50	25 units/ml	50 units/ml	–	100 units/ml	25 units/ml	100 units/ml	12.5 units/ml	> 400	50 units/ml	25 units/ml	50 units/ml	LD50 [2, 16]: 1500 mg/kg
C=CCOC(=O)N(C)C(=O)N[C@@H](C(=O)N[C@@H]1C(=O)N2[C@@H]1SC(C)(C)[C@@H]2C(=O)O)c1ccccc1 [Example 68, Sodium D(-)-α-(3-allyloxycarbonyl-3-methyl-ureido)-benzylpenicillin]	< 0.78 units/ml	3.12 units/ml	50	12.5 units/ml	25 units/ml	identical within the limit of error	50 units/ml	12.5 units/ml	50 units/ml	6.25 units/ml	> 400	25 units/ml	12.5 units/ml	12.5 units/ml	MIC ([1]; listed as (B) of Example 30): 0.78 units/ml; MIC ([5]; listed as (B) of Example 30): 12.5 units/ml; MIC ([6]; listed as (B) of Example 30): 25 units/ml; MIC ([8]; listed as (B) of Example 30): 50 units/ml; MIC ([9]; listed as (B) of Example 30): 12.5 units/ml; MIC ([10]; listed as (B) of Example 30): 50 units/ml; MIC ([11]; listed as (B) of Example 30): 6.25 units/ml; MIC ([3]; listed as (B) of Example 30): 3.12 units/ml; MIC ([13]; listed as (B) of Example 30): 25 units/ml; MIC ([14]; listed as (B) of Example 30): 12.5 units/ml; MIC ([15]; listed as (B) of Example 30): 12.5 units/ml
C=CCOC(=O)N(C)C(=O)N[C@@H](C(=O)N[C@@H]1C(=O)N2[C@@H]1SC(C)(C)[C@@H]2C(=O)O)c1ccccc1 [Example 30, Sodium D(-)-α-(3-allyloxycarbonyl-3-methyl-ureido)-benzylpenicillin]	0.8-4 units/ml	4-20 units/ml	–	100-500 units/ml	100-500 units/ml and 20-100 units/ml	identical within the limit of error	20-100 units/ml and 100-500 units/ml	20-100 units/ml	20-100 units/ml	20-100 units/ml	> 500	20-100 units/ml and 100-500 units/ml	100-500 units/ml	100-500 units/ml	MIC ([1]; listed as (A) of Example 30): 0.8-4 units/ml; MIC ([5]; listed as (A) of Example 30): 20-100 units/ml; MIC ([9]; listed as (A) of Example 30): 4-20 units/ml; MIC ([11]; listed as (A) of Example 30): 4-20 units/ml; MIC ([12]; listed as (A) of Example 30): 100-500 units/ml; MIC ([3]; listed as (A) of Example 30): 0.8-4 units/ml; MIC ([14]; listed as (A) of Example 30): 4-20 units/ml; MIC ([15]; listed as (A) of Example 30): 20-100 units/ml
C=CCN(C(C)=O)C(=O)N[C@@H](C(=O)N[C@@H]1C(=O)N2[C@@H]1SC(C)(C)[C@@H]2C(=O)O)c1ccccc1 [Example 86, Sodium D(-)-α-(3-acetyl-3-allyl-ureido)-benzylpenicillin]	< 0.78 units/ml	12.5 units/ml	–	50 units/ml	50 units/ml	–	100 units/ml	25 units/ml	100 units/ml	50 units/ml	> 400	50 units/ml	25 units/ml	50 units/ml	LD50 [2, 16]: > 3000 mg/kg
CN(C)C(=O)N(C)C(=O)N[C@@H](C(=O)N[C@@H]1C(=O)N2[C@@H]1SC(C)(C)[C@@H]2C(=O)O)c1ccccc1 [Example 94, Sodium D(-)-α-(3-dimethylaminocarbonyl-3-methyl-ureido)benzylpenicillin]	3.12 units/ml	12.5 units/ml	–	100 units/ml	50 units/ml	–	200 units/ml	50 units/ml	200 units/ml	100 units/ml	> 400	200 units/ml	100 units/ml	100 units/ml	LD50 [2]: 4000 mg/kg
